Consider four molecules from patent publication US7368429B2, “Peptide specificity of anti-myelin basic protein and the administration of myelin basic protein peptides to multiple sclerosis patients” (The Governors of the University of Alberta, priority 1991, dated 2008).

The subject of series [1] is anti-MBP purified from CSF of MS patients. In words: In vitro neutralization of purified anti-MBP (liquid phase assay, then solid phase radioimmunoassay). The class given is binding, human. The note with it: for REACTIVITY WITH ANTI-MBP: purified anti-MBP, h-MBP 0-1000 ng, peptides 0-10,000 ng, 1.5 hours incubation; for neutralization of purified anti-MBP: pooled anti-MBP from 10 MS patients, FIG. 2. The source says: Purified MBP was coupled to CNBr-activated Sepharose 4B (Pharmacia™) according to the manufacturer's instructions. Purified CSF IgG containing increased anti-MBP levels from 35 patients with acute MS relapses was used to isolate anti-MBP by MBP-Sepharose affinity chromatography (Warren, K. G. and Catz, I., J Neurol Sci 103:90-96, 1991). Purified anti-MBP samples were compared with the initial IgG source by poly-acrylamide gel electrophoresis. When purified anti-MBP samples were absorbed to zero with MBP, the post-absorption supernatants contained no residual IgG indicating the purity of anti-MBP.
Constant amounts of anti-MBP (15 radioactivity binding units corresponding to 100 for scale expansion purposes=% 0) were incubated with increasing amounts of h-MBP (0-1000 ng) or individual peptides of MBP (0-10,000 ng) in a liquid phase assay and after 1.5 hours incubation, free anti-MBP levels were determined in all mixtures. Anti-MBP isolated from 7 individual MS patients or pooled anti-MBP from 10 different MS patients were used in neutralization experiments. […] Another mouse monoclonal antibody to epitope 45-50 was used as negative antibody control.
(§1) Anti-MBP levels were determined by a solid phase radioimmunoassay with human MBP (Warren, K. G. and Catz, I., Ann Neurol 209:20-25, 1986; Warren, K. G. and Catz, I., Ann Neurol 21:183-187, 1987; and Warren, K. G. and Catz, I., J Neurol Sci 91:143-151, 1989). Free anti-MBP levels were measured in all fractions from affinity chromatography and in all neutralization mixtures. All individual samples were run in quadruplicate using the same iodinated material in order to minimize between-assay variability.

Series [2] relates to polyclonal rabbit antiserum to peptide MBP1-8. The experiment in a line: Positive antibody control of neutralization assay. Format: binding. How it is done:
(§2) Constant amounts of anti-MBP (15 radioactivity binding units corresponding to 100 for scale expansion purposes=% 0) were incubated with increasing amounts of h-MBP (0-1000 ng) or individual peptides of MBP (0-10,000 ng) in a liquid phase assay and after 1.5 hours incubation, free anti-MBP levels were determined in all mixtures. Anti-MBP isolated from 7 individual MS patients or pooled anti-MBP from 10 different MS patients were used in neutralization experiments. […] One monoclonal antibody (MAb) to peptide MBP64-78 and a polyclonal rabbit antiserum to peptide MBP1-8 were used as positive antibody controls (Groome, N., Harland, J., and Dawkes, A., Neurochem Int 7:309-317, 1985; Barry, R., Payton, M., and Groome, N., Neurochem Int 2:291-300, 1991). Another mouse monoclonal antibody to epitope 45-50 was used as negative antibody control.
as §1

Series [3] deals with mouse monoclonal antibody to epitope 45-50. The experiment in a line: Negative antibody control of neutralization assay. The class given is binding. As for the experimental part:
as §2, §1

In series [4] the test system is F and B anti-MBP purified from MS brain tissue. In words: Competitive inhibition assay with MBP decapeptides (epitope localization). The note with it: percent inhibition = 100 - radioactivity units, FIG. 10. Format: binding, human. How it is done:
Prior to being assayed all CSF and/or tissue samples were diluted to a final IgG concentration of 0.010 g/l. F anti-MBP was detected directly in CSF or tissue extract while B levels of antibody were determined following acid hydrolysis of immune complexes with glycine HCl buffer pH 2.2. Non-specific binding was performed for each sample in uncoated wells. For epitope localization, synthetic peptides were firstly reacted with purified antibody in a liquid phase competitive assay and then anti-MBP was determined by radioimmunoassay in all resulting supernatants. Results of the combined competitive binding assay and radioimmunoassay were expressed as percent inhibition of synthetic peptide defined as 100—radioactivity units. Samples were done in 10 replicates and counted for 10 minutes each in a LKB1275 Minigamma counter. A pool of tissue-purified anti-MBP was used at 5 pre-established dilutions as positive controls. Pooled CSF from patients with non-neurological diseases was used as negative controls. Within assay reproducibility was between 3 and 5% and between assay variation was less than 7%.
The peptide(s) producing maximum inhibition were considered to be most highly associated with the antibody binding site.

A further series relates to MAb to peptide MBP64-78. The experiment in a line: Positive antibody control of neutralization assay. The class given is binding. As for the experimental part: as §2, §1

Where a SMILES comes first, the peptide text is derived from it. Where no end group is shown, it is not given here.

Consider `CC[C@H](C)[C@H](NC(=O)[C@H](CC(N)=O)NC(=O)[C@H](CCCCN)NC(=O)[C@H](Cc1ccccc1)NC(=O)[C@H](Cc1ccccc1)NC(=O)[C@H](Cc1c[nH]cn1)NC(=O)[C@@H](NC(=O)[C@@H](N)C(C)C)C(C)C)C(=O)N[C@H](C(=O)N[C@H](C(=O)O)[C@@H](C)O)C(C)C` [MBP86-95] (H-VVHFFKNIVT-OH; N-terminus and C-terminus assumed), for which the “solubility in normal saline” value in “Solubility of peptides” is recorded as “very low solubility”.

Take “MBP1-8: synthetic peptide of human MBP sequence 1-8 with unnatural cysteine residue (ASQKRPSQC)”: the “REACTIVITY WITH ANTI-MBP” value in series [1] is reported as “−”. In series [2], the “inhibition of antibody to peptide MBP1-8” value is given as “inhibited”.

For the molecule “MBP: Native human myelin basic protein isolated from non-MS brain tissue, 18.5 KD (ASQKRPSQRHGSKYLATASTMDHARHGFLPRHRDTG)”, in series [1] (anti-MBP from 7 individual MS patients, FIG. 3), the “neutralization of anti-MBP purified from individual patients” value is listed as “completely neutralized”. In series [1], the “neutralization of purified anti-MBP” value is on record as “completely neutralized” and the “REACTIVITY WITH ANTI-MBP” value was “++”. Besides, the “reaction with MAb to MBP 45-50” value in series [3] is reported as “did not react”. Further, the “percent inhibition of F and B anti-MBP” value in series [4] was determined as 100%.

As for ARTAHYGSLPQKSHG [MBP64-78], in series [1], the “neutralization of purified anti-MBP” value is listed as “partially neutralized” and the “REACTIVITY WITH ANTI-MBP” value is recorded as “+”. The “inhibition of MAb to peptide MBP64-78” value with MAb to peptide MBP64-78 is reported as “inhibited”.
